From US7015228B2, “4-amino-2-(2-pyridyl)pyrimidines as microbicidal active substances” (Ciba Specialty Chemicals Corporation, priority 2001, dated 2006)
Values after ≈ are worked out from the molar mass of the structure shown.

Experiments:
Format in all cases: cell-based
[1] = tested on: Escherichia coli NCTC 8196; experiment: Minimum inhibitory concentration (MIC) in microtitre plates; conditions: for Minimum inhibitory concentration (MIC) E. coli: Table 7, 48 hours at 37° C., MIC = ≦20% growth compared to control; for Minimum inhibitory concentration (MIC) E. coli NCTC 8196: Table 8, * = significant inhibition of growth, but not complete inhibition
Outline: (§1)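 Compounds in DMSO, 1:2 dilution series; bacteria at 1–5×10^6 CFU/ml diluted 1:100 in CASO broth. Incubation 48 h at 37° C, growth read as OD 620 nm. MIC is the lowest concentration giving ≤20% growth relative to control; duplicates.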

[2] = tested on: Staphylococcus hominis DMS 20328; experiment: as above; conditions: Table 7; 48 hours at 37° C.; MIC = ≦20% growth compared to control
Outline: as §1

[3] = tested on: Aspergillus niger ATCC 6275; experiment: Minimum inhibitory concentration (MIC), further microorganisms; conditions: Table 8; * = significant inhibition of growth, but not complete inhibition
Outline: (§2)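 Organisms at 1–5×10^6 CFU/ml were diluted 1:100 into CASO broth (bacteria, yeast) or Sabouraud 2% glucose broth (mould) over 1:2 DMSO dilution series of compound. Bacteria and yeast were incubated 48 h at 37 °C and mould 5 days at 28 °C. MIC is the lowest concentration giving ≤20% growth versus control by OD620, in duplicate.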

[4] = tested on: Candida albicans ATCC 10231; experiment: as above; conditions: Table 8; * = significant inhibition of growth, but not complete inhibition
Outline: as §2

[5] = tested on: Enterococcus hirae ATCC 10541; experiment: as above; conditions: Table 8; * = significant inhibition of growth, but not complete inhibition
Outline: as §2

[6] = tested on: Epidermophyton floccosum DSM 10709; experiment: as above; conditions: Table 8; * = significant inhibition of growth, but not complete inhibition
Outline: as §2

[7] = tested on: Klebsiella pneumonia ATCC 4352; experiment: as above; conditions: Table 8; * = significant inhibition of growth, but not complete inhibition
Outline: as §2

[8] = tested on: Micrococcus luteus ATCC 9341; experiment: as above; conditions: Table 8; * = significant inhibition of growth, but not complete inhibition
Outline: as §2

[9] = tested on: Pseudomonas aeruginosa CIP A-22; experiment: as above; conditions: Table 8
Outline: as §2

[10] = tested on: S. epidermidis ATCC 12228; experiment: as above; conditions: Table 8; * = significant inhibition of growth, but not complete inhibition
Outline: as §2

[11] = tested on: Salmonella choleraesuis ATCC 10708; experiment: as above; conditions: Table 8
Outline: as §2

[12] = tested on: Staphylococcus aureus ATCC 9144; experiment: as above; conditions: Table 8; * = significant inhibition of growth, but not complete inhibition
Outline: as §2

[13] = tested on: Trichophyton mentagrophytes ATCC 9533; experiment: as above; conditions: Table 8; * = significant inhibition of growth, but not complete inhibition
Outline: as §2

Row | Minimum inhibitory concentration (MIC) E. coli [1] [µg/mL] | Minimum inhibitory concentration (MIC) E. coli NCTC 8196 [1] [µg/mL] | Minimum inhibitory concentration (MIC) S. hominis [2] [µg/mL] | Minimum inhibitory concentration (MIC) Aspergillus niger ATCC 6275 [3] [µg/mL] | Minimum inhibitory concentration (MIC) Candida albicans ATCC 10231 [4] | Minimum inhibitory concentration (MIC) Enterococcus hirae ATCC 10541 [5] [µg/mL] | Minimum inhibitory concentration (MIC) Epidermophyton floccosum DSM 10709 [6] | Minimum inhibitory concentration (MIC) Klebsiella pneumonia ATCC 4352 [7] [µg/mL] | Minimum inhibitory concentration (MIC) Micrococcus luteus ATCC 9341 [8] [µg/mL] | Minimum inhibitory concentration (MIC) Pseudomonas aeruginosa CIP A-22 [9] [µg/mL] | Minimum inhibitory concentration (MIC) S. epidermidis ATCC 12228 [10] | Minimum inhibitory concentration (MIC) Staphylococcus aureus ATCC 9144 [12] | Minimum inhibitory concentration (MIC) Trichophyton mentagrophytes ATCC 9533 [13] | SMILES | Minimum inhibitory concentration (MIC) Salmonella choleraesuis ATCC 10708 [11] [µg/mL]
1 | 120 (≈ 314 µM) | >60 | 3.75 (≈ 9.8 µM) | >60 | *15 μg/mL | <3.75 | *60 μg/mL | >60 | <3.75 | >60 | <3.75 µg/mL | <3.75 µg/mL | *60 μg/mL | CCCCCCCCCCCCNc1cc(C(C)C)nc(-c2ccccn2)n1 [compound 48] | >60
2 | 120 (≈ 325 µM) | >60 | 30 (≈ 81.2 µM) | >60 | >60 µg/mL | >60 | >60 µg/mL | >60 | 15 (≈ 40.6 µM) | >60 | >60 µg/mL | *60 μg/mL | >60 µg/mL | CC(C)(C)c1cc(NCCCCCCCCCN)nc(-c2ccccn2)n1 [compound 54] | >60
3 | 120 (≈ 303 µM) | >60 | 3.75 (≈ 9.45 µM) | 60 (≈ 151 µM) | >60 µg/mL | 7.5 (≈ 18.9 µM) | >60 µg/mL | >60 | <3.75 | >60 | *7.5 μg/mL | 15 µg/mL (≈ 37.8 µM) | >60 µg/mL | CCCCCCCCCCCCNc1cc(C(C)(C)C)nc(-c2ccccn2)n1 [compound 60] | >60
4 | 120 (≈ 338 µM) | >60 | 30 (≈ 84.4 µM) | >60 | >60 µg/mL | >60 | >60 µg/mL | >60 | >60 | >60 | >60 µg/mL | >60 µg/mL | >60 µg/mL | Cc1nc(-c2ccccn2)nc(NCCCCCCCCN)c1C(C)C [compound 65] | >60
